# Data taken from patent publication US8680139B2 (Progenra, priority 2009, dated 2014).
# Target: T1, USP7 (Homo sapiens, UniProt Q93009)
# T1 construct: full length human USP7 protein; made in house
# Test: USP7, Ub-PLA2 assay
# Format: biochemical
# Settings: Ub-PLA2 / NBD C6-HPC fluorescence, 30 minute preincubation; read-out: EC50 for inhibition of USP7
# Summary of the method: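 Compounds tested against USP7 with DMSO vehicle control and NEM-treated wells as background. Fluorescence (RFU) read-out; % inhibition normalized per plate to mean DMSO and NEM controls.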
# T1 sequence (Q93009 whole entry): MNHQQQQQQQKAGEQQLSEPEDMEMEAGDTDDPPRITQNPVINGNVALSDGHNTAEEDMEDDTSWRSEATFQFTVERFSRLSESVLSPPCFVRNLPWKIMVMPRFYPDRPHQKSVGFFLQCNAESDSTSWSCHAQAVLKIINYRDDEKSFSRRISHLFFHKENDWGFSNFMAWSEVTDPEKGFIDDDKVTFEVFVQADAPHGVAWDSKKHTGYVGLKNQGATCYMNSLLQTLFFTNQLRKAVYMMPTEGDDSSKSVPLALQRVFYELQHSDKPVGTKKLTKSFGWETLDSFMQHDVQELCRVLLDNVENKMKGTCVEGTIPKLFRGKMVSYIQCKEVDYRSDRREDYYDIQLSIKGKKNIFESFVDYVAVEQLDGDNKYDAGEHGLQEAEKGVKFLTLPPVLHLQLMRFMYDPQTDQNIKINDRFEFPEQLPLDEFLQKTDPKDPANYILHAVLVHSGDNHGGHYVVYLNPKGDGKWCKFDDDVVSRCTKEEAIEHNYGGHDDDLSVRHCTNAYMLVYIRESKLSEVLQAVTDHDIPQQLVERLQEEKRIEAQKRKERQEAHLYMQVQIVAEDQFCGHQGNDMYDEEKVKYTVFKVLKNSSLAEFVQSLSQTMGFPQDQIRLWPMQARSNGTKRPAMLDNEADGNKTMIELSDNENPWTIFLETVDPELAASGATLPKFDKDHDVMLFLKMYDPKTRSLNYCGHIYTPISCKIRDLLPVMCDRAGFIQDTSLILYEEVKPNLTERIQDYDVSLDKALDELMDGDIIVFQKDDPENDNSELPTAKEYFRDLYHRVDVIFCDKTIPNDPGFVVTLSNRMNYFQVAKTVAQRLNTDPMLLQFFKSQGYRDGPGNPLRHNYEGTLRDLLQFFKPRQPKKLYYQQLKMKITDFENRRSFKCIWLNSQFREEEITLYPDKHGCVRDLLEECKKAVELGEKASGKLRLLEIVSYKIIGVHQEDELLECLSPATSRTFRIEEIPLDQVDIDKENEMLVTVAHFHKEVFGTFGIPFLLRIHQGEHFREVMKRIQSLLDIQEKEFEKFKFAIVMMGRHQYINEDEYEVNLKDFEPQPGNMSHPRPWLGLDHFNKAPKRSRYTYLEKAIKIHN
row,SMILES,EC50 [nM]
1,"O=C(CNC(=O)c1cc([N+](=O)[O-])c(Sc2c(Cl)cncc2Cl)s1)NCC(F)F [Example 219, 5-((3,5-dichloropyridin-4-yl)thio)-N-(2-((2,2-difluoroethyl)amino)-2-oxoethyl)-4-nitrothiophene-2-carboxamide]",1000 to 10000
2,"O=C(Nc1cccc(Cl)c1)c1cc([N+](=O)[O-])c(Sc2c(Cl)cncc2Cl)s1 [Example 142, N-(3-chlorophenyl)-5-((3,5-dichloropyridin-4-yl)thio)-4-nitrothiophene-2-carboxamide]",≤ 1000
3,O=C(Nc1ccc2c(c1)CCC2)c1cc([N+](=O)[O-])c(Sc2c(Cl)cncc2Cl)s1 [Example 112],≤ 1000
4,"CC(C)(C)OC(=O)Nc1ccc(NC(=O)c2cc([N+](=O)[O-])c(Sc3c(Cl)cncc3Cl)s2)cc1 [Example 234, tert-butyl (4-(5-((3,5-dichloropyridin-4-yl)thio)-4-nitrothiophene-2-carboxamido)phenyl)carbamate]",≤ 1000
5,"CCOC(=O)c1cc([N+](=O)[O-])c(Sc2cccc(Cl)c2Cl)s1 [Example 41, Ethyl 5-(2,3-dichlorophenylsulfanyl)-4-nitrothiophene-2-carboxylate]",> 10000
6,"CC(=O)c1cc([N+](=O)[O-])c(Sc2ccc(-c3ccccc3)cc2)s1 [Example 16, 1-[4-nitro-5-(4-phenylphenyl)sulfanyl-2-thienyl]ethanone]",> 10000
7,"O=C(NCCN1CCOCC1)c1cc([N+](=O)[O-])c(Sc2c(Cl)cncc2Cl)s1 [Example 59, 5-((3,5-dichloropyridin-4-yl)thio)-N-(2-morpholinoethyl)-4-nitrothiophene-2-carboxamide]",1000 to 10000
8,"COCCCNC(=O)c1cc([N+](=O)[O-])c(Sc2c(Cl)cncc2Cl)s1 [Example 119, 5-((3,5-dichloropyridin-4-yl)thio)-N-(3-methoxypropyl)-4-nitrothiophene-2-carboxamide]",≤ 1000
9,CN1CCN(CCCNC(=O)c2cc([N+](=O)[O-])c(Sc3c(Cl)cncc3Cl)s2)CC1 [Example 65],1000 to 10000
10,"CC(=O)c1cc([N+](=O)[O-])c(Sc2ccc3ccccc3c2)s1 [Example 11, 1-[5-(2-Naphthylsulfanyl)-4-nitro-2-thienyl]ethanone]",> 10000
11,"O=C(NCc1ccc(Cl)nc1)c1cc([N+](=O)[O-])c(Sc2c(Cl)cncc2Cl)s1 [Example 162, N-((6-chloropyridin-3-yl)methyl)-5-((3,5-dichloropyridin-4-yl)thio)-4-nitrothiophene-2-carboxamide]",≤ 1000
12,"Cc1cccc(CNC(=O)c2cc([N+](=O)[O-])c(Sc3c(Cl)cncc3Cl)s2)c1 [Example 150, 5-((3,5-dichloropyridin-4-yl)thio)-N-(3-methylbenzyl)-4-nitrothiophene-2-carboxamide]",≤ 1000
13,"O=C(NCCCN1CCCCC1)c1cc([N+](=O)[O-])c(Sc2c(Cl)cncc2Cl)s1 [Example 100, 5-((3,5-dichloropyridin-4-yl)thio)-4-nitro-N-(3-(piperidin-1-yl)propyl)thiophene-2-carboxamide]",≤ 1000
14,"O=C(NC1CCNCC1)c1cc([N+](=O)[O-])c(Sc2c(Cl)cncc2Cl)s1 [Example 196, 5-((3,5-dichloropyridin-4-yl)thio)-4-nitro-N-(piperidin-4-yl)thiophene-2-carboxamide]",≤ 1000
15,"O=C(NCCC(=O)N1CCCC1)c1cc([N+](=O)[O-])c(Sc2c(Cl)cncc2Cl)s1 [Example 268, 5-((3,5-dichloropyridin-4-yl)thio)-4-nitro-N-(3-oxo-3-(pyrrolidin-1-yl)propyl)thiophene-2-carboxamide]",1000 to 10000
16,"O=C(NCCc1ccc(Br)cc1)c1cc([N+](=O)[O-])c(Sc2c(Cl)cncc2Cl)s1 [Example 105, N-(4-bromophenethyl)-5-((3,5-dichloropyridin-4-yl)thio)-4-nitrothiophene-2-carboxamide]",≤ 1000
17,"COc1cccc(CNC(=O)c2cc([N+](=O)[O-])c(Sc3c(Cl)cncc3Cl)s2)c1OC [Example 97, 5-((3,5-dichloropyridin-4-yl)thio)-N-(2,3-dimethoxybenzyl)-4-nitrothiophene-2-carboxamide]",≤ 1000
18,"O=C(Nc1cc(C(F)(F)F)n[nH]1)c1cc([N+](=O)[O-])c(Sc2c(Cl)cncc2Cl)s1 [Example 164, 5-((3,5-dichloropyridin-4-yl)thio)-4-nitro-N-(3-(trifluoromethyl)-1H-pyrazol-5-yl)thiophene-2-carboxamide]",≤ 1000
19,"O=C(NCCCc1ccccn1)c1cc([N+](=O)[O-])c(Sc2c(Cl)cncc2Cl)s1 [Example 115, 5-((3,5-dichloropyridin-4-yl)thio)-4-nitro-N-(3-(pyridin-2-yl)propyl)thiophene-2-carboxamide]",≤ 1000
20,"O=C(NCCc1ccccc1)c1cc([N+](=O)[O-])c(Sc2c(Cl)cncc2Cl)s1 [Example 96, 5-((3,5-dichloropyridin-4-yl)thio)-4-nitro-N-phenethylthiophene-2-carboxamide]",≤ 1000

row,SMILES,EC50 [nM]
1,"COC(=O)c1cc([N+](=O)[O-])c(Sc2nc3nc(C)cc(C)n3n2)s1 [Example 266, Methyl 5-((5,7-dimethyl-[1,2,4]triazolo[1,5-a]pyrimidin-2-yl)thio)-4-nitrothiophene-2-carboxylate]",> 10000
2,"CS(=O)(=O)c1ccc(CNC(=O)c2cc([N+](=O)[O-])c(Sc3c(Cl)cncc3Cl)s2)cc1 [Example 102, 5-((3,5-dichloropyridin-4-yl)thio)-N-(4-(methylsulfonyl)benzyl)-4-nitrothiophene-2-carboxamide]",≤ 1000
3,"CN1CCC(NC(=O)c2cc([N+](=O)[O-])c(Oc3c(Cl)cccc3Cl)s2)CC1 [Example 261, 5-(2,6-dichlorophenoxy)-N-(1-methylpiperidin-4-yl)-4-nitrothiophene-2-carboxamide]",> 10000
4,"O=C(NCc1cccc(OC(F)F)c1)c1cc([N+](=O)[O-])c(Sc2c(Cl)cncc2Cl)s1 [Example 145, 5-((3,5-dichloropyridin-4-yl)thio)-N-(3-(difluoromethoxy)benzyl)-4-nitrothiophene-2-carboxamide]",≤ 1000
5,"O=C(NC1CC2CCC1C2)c1cc([N+](=O)[O-])c(Sc2c(Cl)cncc2Cl)s1 (stereo not shown) [Example 177, N-(bicyclo[2.2.1]heptan-2-yl)-5-((3,5-dichloropyridin-4-yl)thio)-4-nitrothiophene-2-carboxamide]",≤ 1000
6,"COc1ccccc1CNC(=O)c1cc([N+](=O)[O-])c(Sc2c(Cl)cncc2Cl)s1 [Example 51, 5-((3,5-dichloropyridin-4-yl)thio)-N-(2-methoxybenzyl)-4-nitrothiophene-2-carboxamide]",1000 to 10000
7,O=C(CNC(=O)c1cc([N+](=O)[O-])c(Sc2c(Cl)cncc2Cl)s1)NC1CCCCC1 [Example 220],1000 to 10000
8,"CC(C)CCNC(=O)c1cc([N+](=O)[O-])c(Sc2c(Cl)cncc2Cl)s1 [Example 110, 5-((3,5-dichloropyridin-4-yl)thio)-N-isopentyl-4-nitrothiophene-2-carboxamide]",≤ 1000
9,"O=C(Nc1ccc(F)cc1F)c1cc([N+](=O)[O-])c(Sc2c(Cl)cncc2Cl)s1 [Example 143, 5-((3,5-dichloropyridin-4-yl)thio)-N-(2,4-difluorophenyl)-4-nitrothiophene-2-carboxamide]",≤ 1000
10,"O=[N+]([O-])c1cc(Br)sc1Sc1ccc(Cl)cc1Cl [Example 33, 5-bromo-2-(2,4-dichlorophenyl)sulfanyl-3-nitro-thiophene]",> 10000
11,CN(C)CCCOc1ccc(NC(=O)c2cc(C#N)c(Sc3c(Cl)cncc3Cl)s2)cc1 [Example 204],1000 to 10000
12,"CN1CCN(C(=O)c2cc([N+](=O)[O-])c(Sc3c(Cl)cncc3Cl)s2)CC1 [Example 66, (5-((3,5-dichloropyridin-4-yl)thio)-4-nitrothiophen-2-yl)(4-methylpiperazin-1-yl)methanone]",1000 to 10000
13,"CN(C)CCCOc1ccc(NC(=O)c2cc([N+](=O)[O-])c(Sc3c(F)cncc3F)s2)cc1 [Example 257, 5-((3,5-difluoropyridin-4-yl)thio)-N-(4-(3-(dimethylamino)propoxy)phenyl)-4-nitrothiophene-2-carboxamide]",1000 to 10000
14,"O=C(c1cc([N+](=O)[O-])c(Sc2c(Cl)cncc2Cl)s1)N1CCC(CO)CC1 [Example 73, (5-((3,5-dichloropyridin-4-yl)thio)-4-nitrothiophen-2-yl)(4-(hydroxymethyl)piperidin-1-yl)methanone]",1000 to 10000
15,"O=C(Nc1cccc2cccnc12)c1cc([N+](=O)[O-])c(Sc2c(Cl)cncc2Cl)s1 [Example 78, 5-((3,5-dichloropyridin-4-yl)thio)-4-nitro-N-(quinolin-8-yl)thiophene-2-carboxamide]",> 10000
16,"CC(C)N1CCC(NC(=O)c2cc([N+](=O)[O-])c(Sc3c(Cl)cncc3Cl)s2)CC1 [Example 187, 5-((3,5-dichloropyridin-4-yl)thio)-N-(1-isopropylpiperidin-4-yl)-4-nitrothiophene-2-carboxamide]",≤ 1000
17,"COc1cccc(NC(=O)c2cc([N+](=O)[O-])c(Sc3c(Cl)cncc3Cl)s2)c1 [Example 156, 5-((3,5-dichloropyridin-4-yl)thio)-N-(3-methoxyphenyl)-4-nitrothiophene-2-carboxamide]",≤ 1000
18,"O=Cc1cc([N+](=O)[O-])c(Sc2ccc(Cl)cc2Cl)s1 [Example 32, 5-(2,4-dichlorophenylsulfanyl)-4-nitrothiophene-2-carbaldehyde]",1000 to 10000
19,"CCN1CCC(CNC(=O)c2cc([N+](=O)[O-])c(Sc3c(Cl)cncc3Cl)s2)C1 (stereo not shown) [Example 91, 5-((3,5-dichloropyridin-4-yl)thio)-N-((1-ethylpyrrolidin-3-yl)methyl)-4-nitrothiophene-2-carboxamide]",1000 to 10000
20,"CN(C)CCC(NC(=O)c1cc([N+](=O)[O-])c(Sc2nc3ccccc3s2)s1)c1ccccc1 (stereo not shown) [Example 254, 5-(benzo[d]thiazol-2-ylthio)-N-(3-(dimethylamino)-1-phenylpropyl)-4-nitrothiophene-2-carboxamide]",1000 to 10000
